Results published in patent US10358434B2, “2-(3-pyridinyl)-1H-benzimidazole derivative compound and medicament containing same” (NIHON MEDI-PHYSICS CO., LTD., priority 2014, dated 2019).

How the values were obtained:
[1] = tested on: human adrenal gland section expressing aldosterone-producing adenoma; test: In vitro autoradiography using human adrenal adenoma; type: binding; settings: section of FIG. 17(b)
Procedure, shortened: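 Autoradiography readout: PSL in equal-sized ROIs over adenoma (B2) and normal adrenal cortex (B1), expressed as B2/B1 and decay-corrected using half-life, applied activity and plate contact time. Tissue was surgically excised human adrenal, frozen and cut at 7 μm, incubated 10 min with 5-33 kBq/mL tracer in BSA-containing PBS, then imaged after 16-20 h exposure.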

[2] = Plasma stability evaluation (TLC analysis); type: in vitro ADME; settings: 37° C., 60 minutes, TLC analysis
Procedure, shortened: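 TLC analysis, using each compound's synthesis conditions, judged stability after methanol was added and samples were centrifuged to remove protein. Beforehand, each tracer had spent 60 minutes at 37° C in pooled heparinized normal human plasma.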

[3] = In vivo kinetics experiment (radioactivity distribution); set-up: species or system Wistar male rat; settings: rat i.v., mean ± SD
Procedure, shortened: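 Tissue radioactivity (% ID/g) and adrenal-to-blood, liver, kidney, small intestine, muscle and fat ratios determined at 10, 30 and 60 min post-dose. Tracers (approximately 1 to 3.7 MBq, saline with 1 w/v % ascorbic acid) injected i.v. into caudal vein of anesthetized 9-week male Wistar rats; organs excised, weighed, counted.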

Compound: CC(C)n1c(-c2cncc(Cn3ccnc3)c2)nc2ccc([123I])cc21 [[^123I] 606, 2-[5-{(1H-imidazol-1-yl)methyl}pyridin-3-yl]-6-[^123I]iodo-1-isopropyl-1H-benzo[d]imidazole]
- B2/B1 accumulation ratio [1]: 0.87
- B2 (PSL value, aldosterone-producing adenoma) ([1]; site 71b): 1655
- B1 (PSL value, normal adrenal cortex) ([1]; site 72b): 1913
- Radiochemical purity after incubation in human plasma [2]: 88%
- Adrenal gland/blood ratio of radioactivity accumulation ([3]; 10 min after administration): 85.09 ± 27.52
- Adrenal gland/fat ratio of radioactivity accumulation ([3]; 10 min after administration): 100.88 ± 26.65
- Adrenal gland/kidney ratio of radioactivity accumulation ([3]; 10 min after administration): 10.11 ± 2.69
- Adrenal gland/liver ratio of radioactivity accumulation ([3]; 10 min after administration): 4.02 ± 1.20
- Adrenal gland/muscle ratio of radioactivity accumulation ([3]; 10 min after administration): 57.42 ± 9.23
- Adrenal gland/small intestine ratio of radioactivity accumulation ([3]; 10 min after administration): 9.70 ± 3.04
- Radioactivity distribution Adrenal gland ([3]; 10 min after administration): 13.01 ± 3.75 % ID/g
- Radioactivity distribution Bladder (including urine) ([3]; 10 min after administration): 0.27 ± 0.01 % ID/g
- Radioactivity distribution Blood ([3]; 10 min after administration): 0.15 ± 0.01 % ID/g
- Radioactivity distribution Fat ([3]; 10 min after administration): 0.13 ± 0.01 % ID/g
- Radioactivity distribution Femur ([3]; 10 min after administration): 0.59 ± 0.02 % ID/g
- Radioactivity distribution Heart ([3]; 10 min after administration): 0.56 ± 0.04 % ID/g
- Radioactivity distribution Kidney ([3]; 10 min after administration): 1.29 ± 0.11 % ID/g
- Radioactivity distribution Large intestine ([3]; 10 min after administration): 0.17 ± 0.00 % ID/g
- Radioactivity distribution Liver ([3]; 10 min after administration): 3.24 ± 0.05 % ID/g
- Radioactivity distribution Lung ([3]; 10 min after administration): 0.86 ± 0.07 % ID/g
- Radioactivity distribution Muscle (lower limbs) ([3]; 10 min after administration): 0.22 ± 0.04 % ID/g
- Radioactivity distribution Remaining whole body ([3]; 10 min after administration): 0.29 ± 0.02 % ID/g
- Radioactivity distribution Small intestine ([3]; 10 min after administration): 1.35 ± 0.04 % ID/g
- Radioactivity distribution Spleen ([3]; 10 min after administration): 4.55 ± 0.41 % ID/g
- Radioactivity distribution Stomach ([3]; 10 min after administration): 0.75 ± 0.09 % ID/g
- Radioactivity distribution Testis ([3]; 10 min after administration): 0.08 ± 0.00 % ID/g
- Radioactivity distribution Whole brain ([3]; 10 min after administration): 0.03 ± 0.00 % ID/g
- Adrenal gland/blood ratio of radioactivity accumulation ([3]; 30 min after administration): 151.28 ± 30.77
- Adrenal gland/fat ratio of radioactivity accumulation ([3]; 30 min after administration): 172.63 ± 42.67
- Adrenal gland/kidney ratio of radioactivity accumulation ([3]; 30 min after administration): 20.98 ± 3.60
- Adrenal gland/liver ratio of radioactivity accumulation ([3]; 30 min after administration): 8.21 ± 1.88
- Adrenal gland/muscle ratio of radioactivity accumulation ([3]; 30 min after administration): 130.86 ± 25.55
- Adrenal gland/small intestine ratio of radioactivity accumulation ([3]; 30 min after administration): 7.82 ± 2.11
- Radioactivity distribution Adrenal gland ([3]; 30 min after administration): 21.23 ± 4.43 % ID/g
- Radioactivity distribution Bladder (including urine) ([3]; 30 min after administration): 1.17 ± 0.36 % ID/g
- Radioactivity distribution Blood ([3]; 30 min after administration): 0.14 ± 0.00 % ID/g
- Radioactivity distribution Fat ([3]; 30 min after administration): 0.12 ± 0.01 % ID/g
- Radioactivity distribution Femur ([3]; 30 min after administration): 0.50 ± 0.01 % ID/g
- Radioactivity distribution Heart ([3]; 30 min after administration): 0.44 ± 0.01 % ID/g
- Radioactivity distribution Kidney ([3]; 30 min after administration): 1.01 ± 0.04 % ID/g
- Radioactivity distribution Large intestine ([3]; 30 min after administration): 0.23 ± 0.01 % ID/g
- Radioactivity distribution Liver ([3]; 30 min after administration): 2.59 ± 0.07 % ID/g
- Radioactivity distribution Lung ([3]; 30 min after administration): 0.65 ± 0.03 % ID/g
- Radioactivity distribution Muscle (lower limbs) ([3]; 30 min after administration): 0.16 ± 0.01 % ID/g
- Radioactivity distribution Remaining whole body ([3]; 30 min after administration): 0.24 ± 0.01 % ID/g
- Radioactivity distribution Small intestine ([3]; 30 min after administration): 2.75 ± 0.21 % ID/g
- Radioactivity distribution Spleen ([3]; 30 min after administration): 3.80 ± 0.26 % ID/g
- Radioactivity distribution Stomach ([3]; 30 min after administration): 1.66 ± 0.35 % ID/g
- Radioactivity distribution Testis ([3]; 30 min after administration): 0.11 ± 0.01 % ID/g
- Radioactivity distribution Whole brain ([3]; 30 min after administration): 0.03 ± 0.00 % ID/g
- Adrenal gland/blood ratio of radioactivity accumulation ([3]; 60 min after administration): 161.94 ± 14.16
- Adrenal gland/fat ratio of radioactivity accumulation ([3]; 60 min after administration): 229.99 ± 79.47
- Adrenal gland/kidney ratio of radioactivity accumulation ([3]; 60 min after administration): 22.62 ± 2.40
- Adrenal gland/liver ratio of radioactivity accumulation ([3]; 60 min after administration): 8.81 ± 1.68
- Adrenal gland/muscle ratio of radioactivity accumulation ([3]; 60 min after administration): 168.08 ± 24.28
- Adrenal gland/small intestine ratio of radioactivity accumulation ([3]; 60 min after administration): 5.20 ± 0.46
- Radioactivity distribution Adrenal gland ([3]; 60 min after administration): 19.67 ± 3.42 % ID/g
- Radioactivity distribution Bladder (including urine) ([3]; 60 min after administration): 2.06 ± 0.40 % ID/g
- Radioactivity distribution Blood ([3]; 60 min after administration): 0.12 ± 0.01 % ID/g
- Radioactivity distribution Fat ([3]; 60 min after administration): 0.09 ± 0.02 % ID/g
- Radioactivity distribution Femur ([3]; 60 min after administration): 0.62 ± 0.04 % ID/g
- Radioactivity distribution Heart ([3]; 60 min after administration): 0.40 ± 0.02 % ID/g
- Radioactivity distribution Kidney ([3]; 60 min after administration): 0.87 ± 0.07 % ID/g
- Radioactivity distribution Large intestine ([3]; 60 min after administration): 0.35 ± 0.06 % ID/g
- Radioactivity distribution Liver ([3]; 60 min after administration): 2.24 ± 0.16 % ID/g
- Radioactivity distribution Lung ([3]; 60 min after administration): 0.60 ± 0.03 % ID/g
- Radioactivity distribution Muscle (lower limbs) ([3]; 60 min after administration): 0.12 ± 0.01 % ID/g
- Radioactivity distribution Remaining whole body ([3]; 60 min after administration): 0.22 ± 0.01 % ID/g
- Radioactivity distribution Small intestine ([3]; 60 min after administration): 3.77 ± 0.38 % ID/g
- Radioactivity distribution Spleen ([3]; 60 min after administration): 3.05 ± 0.35 % ID/g
- Radioactivity distribution Stomach ([3]; 60 min after administration): 1.90 ± 0.35 % ID/g
- Radioactivity distribution Testis ([3]; 60 min after administration): 0.16 ± 0.03 % ID/g
- Radioactivity distribution Whole brain ([3]; 60 min after administration): 0.03 ± 0.00 % ID/g
